# Measurements: patent US6300321A, “Compounds, preparation and use for transferring nucleic acids into cells” (Aventis Pharma S.A., priority 1997, dated 2001)
# What was measured:
# DNA = assay: Physicochemical phase (A, B or C) of the nucleolipid complexes as a function of the charge ratio; details: micellar form and in combination with a neutral colipid (DOPE and cholesterol)
# Experimental: FIG. 8: Tables indicating the physicochemical phase (phase A, B or C) in which exist the nucleolipid complexes formed with compound 2 in comparison with its amine-containing analogue, as a function of the charge ratio.
# The determination of the phases was carried out for compound 2 and for its amine-containing homologue in micellar form and in combination with a neutral colipid (DOPE and cholesterol).
# The nucleic acid used is the plasmid pXL3031, as described in the preceding example.
# The complexes are prepared at concentrations of 0.25 mg of DNA/ml with an appropriate quantity of lipid as defined in the present invention in the desired charge ratio. The complex is prepared in a medium containing 5% glucose and a 20 mM solution of sodium chloride. 50 μl of nucleolipid complex are then diluted 20-fold in 950 μl of solution containing 5% glucose and a 20 mM solution of sodium chloride.
# The size of the complexes was determined by measuring the hydrodynamic diameter by dynamic light scattering with the aid of a Coulter N4+ apparatus.
# The complexes formed are negatively charged overall, which makes the crossing of cell membranes difficult. It is thus preferable for the values not to be situated in this region in order to transfect the DNA.
# Phase B for which the DNA is completely saturated with the cationic lipid and the complexes are neutral or slightly positive overall. The ionic repulsions being […], this phase is unstable. A phenomenon of "cross-linking" may occur, leading to precipitation of the complexes. The complexes in this state cannot therefore be used as injection.
# Phase C for which the DNA is oversaturated with the lipid and the complexes are therefore positive overall. […] The complexes in phase C are therefore particularly suitable for use for the transfer of nucleic acids into cells.
# The tables in FIGS. 8, 9, 10 and 11 compare the phases as a function of the charge ratios between the compounds of the invention and their amine-containing analogues, that is to say the cationic lipids whose amidine or guanidine function is replaced by an amino function. It is observed that phase B is shifted towards much lower charge ratios. Thus, the incorporation of amidine functions into the cationic head contributes to the increase in the affinity of the compounds for DNA. This constitutes an important property of the compounds of the invention because the complexes which they form with DNA may be used in phase C without as a result being at excessively high charge ratios, with the beneficial effects which result therefrom on toxicity.
# NIH3T3 cells [1] = assay: In vitro transfection of luciferase plasmid pXL2774; assay type: cell-based; details: FIG. 2, absence of serum proteins, 48 hours
# Experimental: (§1) FIG. 2: Measurement of the in vitro efficiency of transfection of compound 1 according to the invention into NIH3T3, HepG2 and HeLa cells, in the absence of serum proteins and in comparison with its amine-containing homologue (RPR120535).
# (§2) The measurements were carried out at different charge ratios which are plotted on the x-axis. The expression of luciferase is plotted on the y-axis and is expressed in RLU (Relative Light Unit) per well.
# (§3) The nucleic acid used is the plasmid pXL2774 (WO 97/10343) comprising the gene encoding luciferase under the control of the human cytomegalovirus (CMV) promoter.
# (§4) The nucleic acid solutions are diluted to 20 μg/ml in physiological saline (0.15 M sodium chloride NaCl).
# (§5) The products described in the invention are dissolved in water at a concentration varying from 60 to 240 μM and mixed volume for volume with the DNA solution; the final saline concentration is 75 mM.
# (§6) The cells are cultured under appropriate conditions in 24-well microplates (2 cm^2 /well) and are transfected while they are in the exponential growth phase and at 50-70% confluence.
# (§7) The cells are washed with twice 500 μl of medium free of serum proteins and grown again either in serum-free medium (transfection in the absence of serum), or in complete medium (transfection in the presence of serum). 50 μl of transfectant mixture [i.e. 0.5 μg DNA/well] are added to the cells [3 wells/condition DNA vector]. When the cells are transfected in the absence of serum, the growth medium is supplemented 2 hours after transfection with the appropriate quantity of serum.
# (§8) The transfection efficiency is evaluated 48 hours after the transfection by measuring the expression of luciferase according to the recommendations given for the use of the Promega kit [Luciferase Assay System]. The toxicity of the transfectant mixtures is estimated by a measurement of the protein concentrations in the cell lysates.
# (§9) Compound 1 was used in comparison with the cationic lipid RPR120535 (TFA salt) [described in patent application WO 97/18185 incorporated into the present application by way of reference] as DNA vector to transfect three different cell lines: NIH3T3 cells, HepG2 cells and HeLa cells. […] The transfection efficiency for compound 1 and for the cationic lipid for comparison in the three cell types is represented in FIG. 2, for nmol of compound/μg of DNA ratios of between 3 and 12.
# HeLa cells [2] = assay: as above; assay type: cell-based
# Experimental: as §1, §2, §3, §4, §5, §6, §7, §8, §9
# HepG2 cells [3] = assay: as above; assay type: cell-based
# Experimental: as §1, §2, §3, §4, §5, §6, §7, §8, §9
# [4] = system: NIH3T3, HepG2 and HeLa cells; assay: In vitro transfection in the absence and in the presence of serum proteins; assay type: cell-based; details: with versus without serum proteins; FIG. 3
# Experimental: FIG. 3: Measurement of the in vitro efficiency of transfection of compound 1 according to the invention into NIH3T3, HepG2 and HeLa cells, in the absence (white bars) and in the presence (black bars) of serum proteins and in comparison with its amine-containing homologue (RPR120535).
# as §2, §3
# The nucleic acid solutions are diluted to 20 μg/ml in physiological saline (0.15 M sodium chloride NaCl). […]
# as §7, with “50 μl of transfectant mixture [i.e. 0.5 μg DNA/well] are added to the cells [3 wells/condition DNA vector].” left out
# The transfection efficiency is evaluated 48 hours after the transfection by measuring the expression of luciferase according to the recommendations given for the use of the Promega kit [Luciferase Assay System]. […]
# NIH3T3 cells [5] = assay: Toxicity of the transfectant mixtures (protein concentrations in the cell lysates); assay type: cell-based
# Experimental: as §6, §7, §8, §9
# HeLa cells [6] = assay: as above; assay type: cell-based
# Experimental: as §6, §7, §8, §9
# HepG2 cells [7] = assay: as above; assay type: cell-based
# Experimental: as §6, §7, §8, §9
# [8] = FIG. 2, absence of serum proteins, 48 hours
structure (smiles),measurement,setting,value
"CCCCCCCCCCCCCCN(CCCCCCCCCCCCCC)C(=O)CNC(=O)CNCCCNCCCCNCCCNC(=N)N [compound 3, N-ditetradecylcarbamoylmethyl-2-{3-[4-(3-guanidinopropylamino)butylamino]propylamino}acetamide]",shift of the unstable phase B in comparison with the amine-containing analogue,DNA,a shift is observed from the unstable phase B towards lower charge ratios
"CCCCCCCCCCCCCCCCCCN(CCCCCCCCCCCCCCCCCC)C(=O)CNCCN(CCNC(=N)N)CCNC(=N)N [compound 2, 2-{2-[bis(2-guanidinoethyl)amino]ethylamino}-N,N-dioctadecylacetamide]",shift of the unstable phase B in comparison with the amine-containing analogue,DNA,a shift is observed from the unstable phase B towards lower charge ratios
"CCCCCCCCCCCCCCCCCCN(CCCCCCCCCCCCCCCCCC)C(=O)CNC(=O)CNCCCNCCCCNCCCNC(=N)N [compound 1, N-dioctadecylcarbamoylmethyl-2-{3-[4-(3-guanidinopropylamino)butylamino]propylamino}acetamide]",ratio of cationic lipid to DNA giving the maximum transfection efficiency,NIH3T3 cells [1],6 nanomoles cationic lipid/μg of DNA
same,ratio of cationic lipid to DNA giving the maximum transfection efficiency,HeLa cells [2]; [8],9 nanomoles cationic lipid/μg of DNA
same,luciferase expression level relative to the product tested in comparison (RPR120535),HeLa cells [2]; absence of serum,2 to 4 times higher
same,ratio of cationic lipid to DNA giving the maximum transfection efficiency,HepG2 cells [3]; [8],9 nanomoles cationic lipid/μg of DNA
same,luciferase expression level relative to the product tested in comparison (RPR120535),HepG2 cells [3]; absence of serum,2 to 4 times higher
same,transfection levels with or without serum proteins,[4],the transfection levels with or without serum proteins are the same
same,toxicity of the transfectant mixture,NIH3T3 cells [5],no significant toxicity was detected
same,toxicity of the transfectant mixture,HeLa cells [6],no significant toxicity was detected
same,toxicity of the transfectant mixture,HepG2 cells [7],no significant toxicity was detected
"CCCCCCCCCCCCCCN(CCCCCCCCCCCCCC)C(=O)CNC(=O)CN(CCCCNCCCNC(=N)N)CCCNC(=N)N [compound 5, N-ditetradecylcarbamoylmethyl-2-{(3-guanidinopropyl)-[4-(3-guanidinopropylamino)butyl]amino}acetamide]",shift of the unstable phase B in comparison with the amine-containing analogue,DNA,a shift is observed from the unstable phase B towards lower charge ratios
"CCCCCCCCCCCCCCN(CCCCCCCCCCCCCC)C(=O)CNC(=O)CNCCCN(CCCCN(CCCNC(=N)N)CCCNC(=N)N)CCCNC(=N)N [compound 6, 2-{3-[{4-[bis(3-guanidinopropyl)amino]butyl}-(3-guanidinopropyl)amino]-propylamino}-N-ditetradecylcarbamoylmethylacetamide]",shift of the unstable phase B in comparison with the amine-containing analogue,DNA,a shift is observed from the nstable phase B towards lower charge ratios
"CCCCCCCCCCCCCCCCCCN(CCCCCCCCCCCCCCCCCC)C(=O)CNC(=O)CNCCCNCCCCNCCCN [RPR120535, reference compound]",transfection levels with or without serum proteins,[4],a strong inhibition is observed due to the presence of the serum proteins
